What all share (assay type): cell-based
Test [1] concerns Staphylococcus aureus Smith. Description: antibacterial activity (MIC). The following applies: medium pH 7.2, Japanese Antibiotic Medicament Standard; unit assumed. How it is done: (§1) Furthermore in the following Table 3, the antibacterial activity (MIC) of the compounds are set forth. The measurement was carried out according to the Japanese Antibiotic Medicament Standard using a medium having a pH of 7.2. Numbers of the compounds in Table 3 correspond to those in Tables 1 and 2.

Test [2] concerns Pseudomonas aeruginosa BMH#10. The test can be described thus: antibacterial activity (MIC). Particulars: medium pH 7.2, Japanese Antibiotic Medicament Standard; unit assumed. How it is done:
as §1

Test [3] has as its system Shigella sonnei ATCC 9290. The test can be described thus: antibacterial activity (MIC). The following applies: medium pH 7.2, Japanese Antibiotic Medicament Standard; unit assumed. The method, then:
as §1

The test system of another test is Escherichia coli NIHJ-2. Description: antibacterial activity (MIC). Particulars: medium pH 7.2, Japanese Antibiotic Medicament Standard; unit assumed. The method, then: as §1
The test system of another test is Providencia sp. KY3950. Description: antibacterial activity (MIC). The following applies: medium pH 7.2, Japanese Antibiotic Medicament Standard; unit assumed. The method, then:
as §1

In a further test the test system is Escherichia coli 3100. The test can be described thus: antibacterial activity (MIC). Particulars: medium pH 7.2, Japanese Antibiotic Medicament Standard; unit assumed. The method, then: as §1
Test [4] relates to Bacillus subtilis ATCC 6633. Description: antibacterial activity (MIC). The following applies: medium pH 7.2, Japanese Antibiotic Medicament Standard; unit assumed. How it is done:
as §1

The subject of test [5] is Staphylococcus aureus 209-p. Description: antibacterial activity (MIC). The following applies: medium pH 7.2, Japanese Antibiotic Medicament Standard; unit assumed. How it is done: as §1
For test [6], the system named is Klebsiella pneumoniae #8045. Description: antibacterial activity (MIC). The following applies: medium pH 7.2, Japanese Antibiotic Medicament Standard; unit assumed. The method, then:
as §1

The test system of test [7] is Escherichia coli R19 KY-8348. The test can be described thus: antibacterial activity (MIC), resistant strain. The following applies: medium pH 7.2; strain producing gentamicin acetyltransferase; unit assumed. The method, then:
as §1

The test system of test [8] is Escherichia coli R17 Z-343. Description: antibacterial activity (MIC), resistant strain. Particulars: medium pH 7.2; strain "producing kanamycin" (footnote 1); unit assumed. The method, then: as §1
Test [9] concerns Escherichia coli R18 KY-8321. The test can be described thus: antibacterial activity (MIC), resistant strain. Particulars: medium pH 7.2; strain producing gentamicin nucleotidyltransferase and neomycin phosphotransferase II; unit assumed. The method, then: as §1
The test system of test [10] is Pseudomonas aeruginosa R4 KY8511. Description: antibacterial activity (MIC), resistant strain. The following applies: medium pH 7.2; strain producing gentamicin acetyltransferase; unit assumed. How it is done: as §1
The test system of test [11] is Pseudomonas aeruginosa R9 KY8516. The test can be described thus: antibacterial activity (MIC), resistant strain. Particulars: medium pH 7.2; strain "producing kanamycin" (footnote 1); unit assumed. The method, then: as §1
Another test concerns Providencia sp. 164. The test can be described thus: antibacterial activity (MIC), resistant strain. Particulars: medium pH 7.2; strain producing gentamicin acetyltransferase (footnote 5); unit assumed. How it is done: as §1
The subject of test [12] is Escherichia coli 57R/W677. Description: antibacterial activity (MIC), resistant strain. The following applies: medium pH 7.2; strain "producing gentamicin" (footnote 4); unit assumed. How it is done:
as §1

The test system of test [13] is Klebsiella pneumniae 3020 Y60. Description: antibacterial activity (MIC), resistant strain. Particulars: medium pH 7.2; strain "producing gentamicin" (footnote 4); unit assumed. How it is done: as §1

As for `COC1C(O)C(N)C(OC2OC(C(C)N)CCC2NCCN)C(O)C1N(C)CCN` (centres unmarked) [Compound 5, 4,2'-di-N-(2-aminoethyl)fortimicin B], the antibacterial activity (MIC) in test [1] was 1.56 µg/mL; in test [2], 1.56 µg/mL; in test [3], 12.5 µg/mL; with Escherichia coli NIHJ-2 it was 3.12 µg/mL; with Providencia sp. KY3950 it was 12.5 µg/mL; in the test on Escherichia coli 3100, 6.25 µg/mL. In addition, the antibacterial activity (MIC) worked out at 1.56 µg/mL in [4]; 1.56 µg/mL in test [5]; 3.12 µg/mL in [6]; 25 µg/mL in test [7]; 3.12 µg/mL in [8]; 6.25 µg/mL in test [9]. Also, the antibacterial activity (MIC) is 100 µg/mL in [10]; greater than 100 µg/mL in [11]; 50 µg/mL with Providencia sp. 164; 6.25 µg/mL in [12]; 25 µg/mL in test [13].

As for `COC1C(O)C(N)C(OC2OC(C(C)N)CCC2NC(=O)CN)C(O)C1N(C)C[C@@H](O)CCN` (stereo partly drawn) [Compound 6, 4-N-[(S)-4-amino-2-hydroxybutyl]-2'-N-glycylfortimicin B], the antibacterial activity (MIC) in [1] was 0.78 µg/mL; in test [2], 0.78 µg/mL; in [3], 6.25 µg/mL; with Escherichia coli NIHJ-2, 3.12 µg/mL; with Providencia sp. KY3950, 6.25 µg/mL; with Escherichia coli 3100, 6.25 µg/mL. Further, the antibacterial activity (MIC) was found to be 0.78 µg/mL in test [4]; 1.56 µg/mL in test [5]; 1.56 µg/mL in [6]; 3.12 µg/mL in [7]; 1.56 µg/mL in test [8]; 3.12 µg/mL in test [9]. The antibacterial activity (MIC) in test [10] came out at 50 µg/mL; in test [11] it was 25 µg/mL; in the test on Providencia sp. 164 it was 6.25 µg/mL; in test [12], 6.25 µg/mL; in test [13], 6.25 µg/mL.

On to `COC1C(O)C(N)C(OC2OC(C(C)N)CCC2NCCN)C(O)C1N(C)C[C@@H](O)CCN` (stereo partly drawn) [Compound 7, 4-N-[(S)-4-amino-2-hydroxybutyl]-2'-N-(2-aminoethyl)fortimicin B], for which the antibacterial activity (MIC) in test [1] was 1.56 µg/mL; in test [2] it was 0.78 µg/mL; in [3], 3.12 µg/mL; in the test on Escherichia coli NIHJ-2 it was 3.12 µg/mL; with Providencia sp. KY3950, 6.25 µg/mL; in the test on Escherichia coli 3100, 3.12 µg/mL. The antibacterial activity (MIC) in test [4] stood at 0.4 µg/mL; in test [5] it was 0.78 µg/mL; in test [6] it was 0.78 µg/mL; in [7], 0.78 µg/mL; in test [8], 0.78 µg/mL; in test [9], 3.12 µg/mL. Also, the antibacterial activity (MIC) in [10] was found to be 12.5 µg/mL; in [11], 6.25 µg/mL; in the test on Providencia sp. 164, 12.5 µg/mL; in test [12] it was 3.12 µg/mL; in [13] it was 6.25 µg/mL.

For the molecule `COC1C(O)C(N)C(OC2OC(C(C)N)CCC2NC(=O)[C@@H](O)CCN)C(O)C1N(C)C[C@@H](O)CCN` (stereo partly drawn) [Compound 8, 4-N-[(S)-4-amino-2-hydroxybutyl]-2'-N-[(S)-4-amino-2-hydroxybutyryl]fortimicin B], the antibacterial activity (MIC) worked out at 1.56 µg/mL in test [1]; 0.78 µg/mL in test [2]; 6.25 µg/mL in [3]; 1.56 µg/mL with Escherichia coli NIHJ-2; 6.25 µg/mL in the test with Providencia sp. KY3950; 3.12 µg/mL in the test on Escherichia coli 3100. Also, the antibacterial activity (MIC) in [4] is 0.78 µg/mL; in test [5] it was 0.78 µg/mL; in test [6], 1.56 µg/mL; in [7] it was 3.12 µg/mL; in [8], 0.78 µg/mL; in test [9] it was 6.25 µg/mL. In addition, the antibacterial activity (MIC) in [10] stood at 100 µg/mL; in [11], 50 µg/mL; in the test with Providencia sp. 164 it was 6.25 µg/mL; in test [12] it was 3.12 µg/mL; in test [13] it was 12.5 µg/mL.

With `COC1C(O)C(N)C(OC2OC(C(C)N)CCC2NC[C@@H](O)CCN)C(O)C1N(C)C[C@@H](O)CCN` (stereo partly drawn) [Compound 9, 4,2'-di-N-[(S)-4-amino-2-hydroxybutyl]fortimicin B], the antibacterial activity (MIC) in test [1] stood at 0.78 µg/mL; in test [2] it was 0.78 µg/mL; in [3], 3.12 µg/mL; in the test on Escherichia coli NIHJ-2, 1.56 µg/mL; with Providencia sp. KY3950, 1.56 µg/mL; with Escherichia coli 3100, 3.12 µg/mL. In addition, the antibacterial activity (MIC) in [4] turned out to be 0.4 µg/mL; in test [5], 0.78 µg/mL; in test [6], 1.56 µg/mL; in [7], 6.25 µg/mL; in test [8], 1.56 µg/mL; in [9], 1.56 µg/mL. For the same molecule, the antibacterial activity (MIC) in [10] came to 100 µg/mL; in test [11], 3.12 µg/mL; in the test with Providencia sp. 164 it was 3.12 µg/mL; in [12] it was 3.12 µg/mL; in test [13], 3.12 µg/mL.

For `COC1C(O)C(N)C(OC2OC(C(C)N)CCC2NCCO)C(O)C1N(C)C[C@@H](O)CCN` (stereo partly drawn) [Compound 10, 4-N-[(S)-4-amino-2-hydroxybutyl]-2'-N-(2-hydroxyethyl)fortimicin B], the antibacterial activity (MIC) in test [1] amounted to 0.78 µg/mL; in test [2], 1.56 µg/mL; in test [3] it was 6.25 µg/mL; in the test on Escherichia coli NIHJ-2, 6.25 µg/mL; in the test with Providencia sp. KY3950, 12.5 µg/mL; in the test on Escherichia coli 3100, 3.12 µg/mL. In addition, the antibacterial activity (MIC) in [4] amounted to 0.78 µg/mL; in [5], 1.56 µg/mL; in test [6], 6.25 µg/mL; in test [7], 100 µg/mL; in test [8] it was 3.12 µg/mL; in test [9], 1.56 µg/mL. The antibacterial activity (MIC) was greater than 100 µg/mL in test [10]; 50 µg/mL in test [11]; 50 µg/mL with Providencia sp. 164; 3.12 µg/mL in test [12]; 100 µg/mL in test [13].

With `NC[C@H]1O[C@H](O[C@H]2[C@H](O)[C@@H](O[C@H]3O[C@H](CO)[C@@H](O)[C@H](N)[C@H]3O)[C@H](N)C[C@@H]2N)[C@H](O)[C@@H](O)[C@@H]1O` [KA, kanamycin A, reference compound], the antibacterial activity (MIC) was 0.4 µg/mL in test [1]; 25 µg/mL in test [2]; 3.12 µg/mL in [3]; 1.56 µg/mL in the test on Escherichia coli NIHJ-2; 12.5 µg/mL in the test with Providencia sp. KY3950; 3.12 µg/mL in the test on Escherichia coli 3100. The antibacterial activity (MIC) in [4] is 0.4 µg/mL; in [5], 0.4 µg/mL; in test [6] it was 0.78 µg/mL; in [7], greater than 100 µg/mL; in [8], 12.5 µg/mL; in test [9], greater than 100 µg/mL. Also, the antibacterial activity (MIC) was greater than 100 µg/mL in test [10]; greater than 100 µg/mL in test [11]; greater than 100 µg/mL in the test on Providencia sp. 164; 100 µg/mL in test [12]; greater than 100 µg/mL in test [13].

Source of the values: patent publication US4226980A, “Novel derivatives of fortimicin B and process for preparing same” (Abbott Laboratories, priority 1978, dated 1980).
